According to patent publication US9907800B2, “Kinase inhibitors and method of treating cancer” (University Health Network, priority 2010, dated 2018):
Structures can show the parent of a compound that is named as a salt.

Experiments:
Format in all cases: biochemical
FLT3 = FLT3 (Homo sapiens (Human), UniProt P36888); test: FLT3 inhibition assay (Z-Lyte); details: read-out: Flt3 IC50 Ranges
Description: The enzymatic activity of FLT3 was determined using the Z-Lyte assay kit from Invitrogen (Invitrogen cat #PV3191). […] The % inhibition values were determined according to the manufacturer's directions and IC50 values were obtained using a non-linear 4 point logistic curve fit (XLfit4, IDBS).

human PLK4 = human PLK4 (Homo sapiens (Human), UniProt O00444); test: PLK4 inhibition assay (indirect ELISA); details: read-out: PLK4 IC50 Ranges
Chain of human PLK4 (O00444 1-391): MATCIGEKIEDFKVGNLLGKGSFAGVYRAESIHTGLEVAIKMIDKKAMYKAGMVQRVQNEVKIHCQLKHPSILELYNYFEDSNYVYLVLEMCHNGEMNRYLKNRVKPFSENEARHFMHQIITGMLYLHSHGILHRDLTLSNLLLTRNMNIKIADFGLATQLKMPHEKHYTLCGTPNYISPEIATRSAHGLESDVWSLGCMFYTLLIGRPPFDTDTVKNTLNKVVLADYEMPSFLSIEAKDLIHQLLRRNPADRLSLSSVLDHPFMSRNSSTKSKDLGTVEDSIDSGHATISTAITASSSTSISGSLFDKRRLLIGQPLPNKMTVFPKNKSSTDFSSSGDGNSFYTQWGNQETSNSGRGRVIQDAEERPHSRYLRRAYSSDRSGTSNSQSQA
Description: PLK4 activity was measured using an indirect ELISA detection system. […] The colourimetric reaction was allowed to continue for 5 minutes, followed by addition of stop solution (0.5 N sulphuric acid), and quantified by detection at 450 nm with either a monochromatic or filter based plate reader (Molecular Devices M5 or Beckman DTX880, respectively).
Compounds were pre-incubated in the presence of enzyme for 15 minutes prior to addition of ATP and the activity remaining quantified using the above described activity assay. […] The IC50 value was determined using a non-linear 4 point logistic curve fit (XLfit4, IDBS) with the formula; (A+(B/(1+((x/C)^D)))), where A=background value, B=range, C=inflection point, D=curve fit parameter.

Aurora B = Aurora B (Homo sapiens (Human), UniProt Q96GD4); test: Aurora B inhibition assay (Z-Lyte); details: read-out: Aurora B IC50 Ranges
Chain of Aurora B (Q96GD4 whole entry): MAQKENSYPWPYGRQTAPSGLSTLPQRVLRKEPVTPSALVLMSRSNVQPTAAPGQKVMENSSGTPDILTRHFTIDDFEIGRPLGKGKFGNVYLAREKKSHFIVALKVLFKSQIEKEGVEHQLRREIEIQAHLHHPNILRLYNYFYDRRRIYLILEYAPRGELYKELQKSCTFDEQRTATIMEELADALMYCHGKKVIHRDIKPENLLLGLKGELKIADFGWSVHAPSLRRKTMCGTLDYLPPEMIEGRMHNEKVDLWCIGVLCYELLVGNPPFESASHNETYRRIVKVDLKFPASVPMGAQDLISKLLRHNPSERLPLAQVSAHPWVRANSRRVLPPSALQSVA
Description: Aurora B inhibition was determined using the Z-Lyte assay kit from Invitrogen. […] The % inhibition values were determined according to the manufacturer's directions and IC50 values were obtained using a non-linear 4 point logistic curve fit (XLfit4, IDBS)

Chain of FLT3 (P36888 27-993): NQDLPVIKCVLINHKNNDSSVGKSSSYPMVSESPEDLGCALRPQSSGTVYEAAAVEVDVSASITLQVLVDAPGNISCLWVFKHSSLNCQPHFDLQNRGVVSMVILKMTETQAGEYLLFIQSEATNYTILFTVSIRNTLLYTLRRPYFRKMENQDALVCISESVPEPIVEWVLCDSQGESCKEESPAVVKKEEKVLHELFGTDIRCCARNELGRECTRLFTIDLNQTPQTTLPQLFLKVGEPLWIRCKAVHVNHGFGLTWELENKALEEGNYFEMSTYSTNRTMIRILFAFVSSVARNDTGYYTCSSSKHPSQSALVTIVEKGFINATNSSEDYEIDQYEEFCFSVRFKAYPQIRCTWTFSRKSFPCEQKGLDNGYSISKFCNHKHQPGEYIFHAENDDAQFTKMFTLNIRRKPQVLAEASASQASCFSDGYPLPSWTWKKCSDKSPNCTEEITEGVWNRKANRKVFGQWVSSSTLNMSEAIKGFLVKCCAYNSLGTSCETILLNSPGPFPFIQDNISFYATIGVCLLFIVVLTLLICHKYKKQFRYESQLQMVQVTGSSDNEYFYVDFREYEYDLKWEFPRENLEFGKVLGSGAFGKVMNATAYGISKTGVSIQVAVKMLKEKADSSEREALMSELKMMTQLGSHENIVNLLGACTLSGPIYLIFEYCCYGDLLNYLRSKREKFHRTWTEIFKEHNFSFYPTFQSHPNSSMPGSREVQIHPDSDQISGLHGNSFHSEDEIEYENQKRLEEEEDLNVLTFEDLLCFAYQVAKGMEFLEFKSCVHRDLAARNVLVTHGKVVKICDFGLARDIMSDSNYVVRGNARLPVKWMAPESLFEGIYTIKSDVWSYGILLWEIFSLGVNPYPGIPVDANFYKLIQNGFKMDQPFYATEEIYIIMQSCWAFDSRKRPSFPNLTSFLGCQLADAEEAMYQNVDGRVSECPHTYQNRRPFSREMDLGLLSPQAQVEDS

SMILES	IC50 (FLT3) [nM]	IC50 (human PLK4) [nM]	IC50 (Aurora B) [nM]
COc1ccc2c(c1)[C@]1(C[C@H]1c1ccc3c(-c4cccc(C(=O)N5CCN(C)CC5)c4)n[nH]c3c1)C(=O)N2 (relative stereo) [Example A149, (1R*,2S*)-5′-methoxy-2-(3-(3-(4-methylpiperazine-1-carbonyl)phenyl)-1H-indazol-6-yl)spiro[cyclopropane-1,3′-indolin]-2′-one 2,2,2-trifluoroacetate]	> 1000	< 100	> 1000
COc1ccc2c(c1)[C@]1(C[C@H]1c1ccc3c(-c4ccc(CO)cc4)n[nH]c3c1)C(=O)N2 (relative stereo) [Example A45, (1R*,2S*)-2-(3-(4-(hydroxymethyl)phenyl)-1H-indazol-6-yl)-5′-methoxyspiro[cyclopropane-1,3′-indolin]-2′-one 2,2,2-trifluoroacetate]	> 1000	< 100	100 to 1000
COc1ccc2c(c1)[C@]1(C[C@H]1c1ccc3c(-c4ccc(N5C[C@@H](C)N[C@@H](C)C5)cc4)n[nH]c3c1)C(=O)N2 [Example A126, (1R,2S)-2-(3-(4-(cis-3,5-dimethylpiperazin-1-yl)phenyl)-1H-indazol-6-yl)-5′-methoxyspiro[cyclopropane-1,3′-indolin]-2′-one 2,2,2-trifluoroacetate]	100 to 1000	< 100	< 100
COc1ccc2c(c1)[C@]1(C[C@H]1c1ccc3c(-c4cccc(N5CCNCC5)c4)n[nH]c3c1)C(=O)N2 (relative stereo) [Example A47, (1R*,2S*)-5′-methoxy-2-(3-(3-(piperazin-1-yl)phenyl)-1H-indazol-6-yl)spiro[cyclopropane-1,3′-indolin]-2′-one 2,2,2-trifluoroacetate]	> 1000	< 100	100 to 1000
CCc1ccc2c(c1)[C@]1(C[C@H]1c1ccc3c(-c4cccc(CN5CCOCC5)c4)n[nH]c3c1)C(=O)N2 (relative stereo) [Example A141, (1R*,2S*)-5′-ethyl-2-(3-(3-(morpholinomethyl)phenyl)-1H-indazol-6-yl)spiro[cyclopropane-1,3′-indolin]-2′-one 2,2,2-trifluoroacetate]	> 1000	> 1000	> 1000
COc1ccc2c(c1)[C@]1(C[C@H]1c1ccc3c(/C=C/c4ccc(N5CCN(C)CC5)cc4)n[nH]c3c1)C(=O)N2 [Example A175, (1R,2S)-(E)-5′-methoxy-2-(3-(4-(4-methylpiperazin-1-yl)styryl)-1H-indazol-6-yl)spiro[cyclopropane-1,3′-indolin]-2′-one 2,2,2-trifluoroacetate]	< 100	< 100	< 100
COc1ccc2c(c1)[C@]1(C[C@H]1c1ccc3c(-c4ccc(N5CCN(C6CCCC6)CC5)cc4)n[nH]c3c1)C(=O)N2 [Example A192, (1R,2S)-2-(3-(4-(4-cyclopentylpiperazin-1-yl)phenyl)-1H-indazol-6-yl)-5′-methoxyspiro[cyclopropane-1,3′-indolin]-2′-one 2,2,2-trifluoroacetate]	100 to 1000	< 100	< 100
COc1ccc2c(c1)[C@]1(C[C@H]1c1ccc3c(-c4ccc(N(C)CCN(C)C)cc4)n[nH]c3c1)C(=O)N2 [Example A129, (1R,2S)-2-(3-(4-((2-(dimethylamino)ethyl)(methyl)amino)phenyl)-1H-indazol-6-yl)-5′-methoxyspiro[cyclopropane-1,3′-indolin]-2′-one 2,2,2-trifluoroacetate]	100 to 1000	< 100	< 100
COCCN1C(=O)[C@@]2(C[C@H]2c2ccc3c(/C=C/c4ccc(CN(C)C)cc4)n[nH]c3c2)c2ccccc21 [Example A131, (1R,2S)-(E)-2-(3-(4-((dimethylamino)methyl)styryl)-1H-indazol-6-yl)-1′-(2-methoxyethyl)spiro[cyclopropane-1,3′-indolin]-2′-one 2,2,2-trifluoroacetate]	> 1000	< 100	< 100
COc1ccc2c(c1)[C@]1(C[C@H]1c1ccc3c(-c4ccc5c(c4)CNCC5)n[nH]c3c1)C(=O)N2 [Example A71, (1R,2S)-5′-methoxy-2-(3-(1,2,3,4-tetrahydroisoquinolin-7-yl)-1H-indazol-6-yl)spiro[cyclopropane-1,3′-indolin]-2′-one 2,2,2-trifluoroacetate salt]	100 to 1000	< 100	< 100
COc1ccc2c(c1)[C@]1(C[C@H]1c1ccc3c(/C=C/c4ccc(CN5CC[C@@H](F)C5)cc4)n[nH]c3c1)C(=O)N2 [Example A112, (1R,2S)-(E)-2-(3-(4-(((R)-3-fluoropyrrolidin-1-yl)methyl)styryl)-1H-indazol-6-yl)-5′-methoxyspiro[cyclopropane-1,3′-indolin]-2′-one 2,2,2-trifluoroacetate]	100 to 1000	< 100	< 100
